Test system: duplex-form calf thymus DNA (CT-DNA)
Test: Thermal denaturation studies with calf thymus DNA
Assay type: binding
Details: [PBD]:[DNA] molar ratio 1:5, CT-DNA 100 μM, ligand 20 μM, pH 7.00; for (ΔTm ° C.) after incubation at 37° C. for 0 h: 0 h incubation at 37° C.; for (ΔTm ° C.) after incubation at 37° C. for 18 h: 18 h incubation at 37° C.
Protocol: Compounds have been subjected to thermal denaturation studies with duplex-form calf thymus DNA (CT-DNA) using an modification of a reported procedure (Newman, M. S. Carcinog-compr. Surv. 1976, 1, 203; (b) Hecht, S. S.; Loy, M.; Hoffman, Carcinog-compr. Surv. 1976, 1, 325). Working solutions in aqueous buffer (10 mM NaH2PO4/Na2HPO4, 1 mM Na2EDTA, pH 7.00+0.01) containing CT-DNA (100 μm in phosphate) and the PBD (20 μm) have been prepared by addition of concentrated PBD solutions in DMSO to obtain a fixed [PBD]/[DNA] molar ratio of 1:5. The DNA-PBD solutions have been incubated at 37° C. for 0 and 18 h prior to analysis. Samples have been monitored at 260 nm using a Beckman DU-800 spectrophotometer fitted with high performance temperature controller, and heated at 1° C. min^−1 in the 40-110° C. range. DNA helix→coil transition temperatures (Tm) have been obtained from the maxima in the d(A260)/dT derivative plots. Drug-induced alterations in DNA melting behavior are given by: ΔTm=Tm(DNA+PBD)−Tm(DNA alone), where the Tm value for the PBD-free CT-DNA is 69.1±0.01.
The DNA binding activity for these Cinnamido-pyrrolo[2,1-c][1,4]benzodiazepines have been examined by thermal denaturation studies using calf thymus (CT) DNA. […] The data for the compounds 8b&d, 11b&d, 14b&d and 17b&d is included in Table 1 for comparison.

| Compound | (ΔTm ° C.) after incubation at 37° C. for 0 h | (ΔTm ° C.) after incubation at 37° C. for 18 h |
| --- | --- | --- |
| 1,1′-{[(E-3-bis propoxy-3-methoxy phenyl)-1-4-piperzino]-2-propene-1-one}dioxy}bis(11aS)-7-methoxy-1,2,3,11a-tetrahydro-5H-pyrrolo[2,1-c][1,4]benzo diazepine-5-one [17b] | 4.0 °C | 5.1 °C |
| COc1cc(/C=C/C(=O)N2CCN(C)CC2)ccc1OCCCOc1cc2c(cc1OC)C(=O)N1CCC[C@H]1C=N2 [11b, 7-methoxy-8-(3-2-methoxy-4-[(E)-3-(4-methylpiperazino)-3-oxo-1-propenyl-phenoxy]propoxy)-(11aS)-2,3,5,11^a-tetrahydro-5H-pyrrolo[2,1-c][1,4]benzodiazepine-5-one] | 4.0 °C | 5.0 °C |
| COc1cc(/C=C/C(=O)N2CCN(C(=O)c3cc(OC)c(OC)c(OC)c3)CC2)ccc1OCCCCCOc1cc2c(cc1OC)C(=O)N1CCC[C@H]1C=N2 [8d, 7-methoxy-8-{5-(2-methoxy-4-(E)-3-oxo-3-[4-(3,4,5-trimethoxybenzoyl)piperazino]-1-propenylphenoxy)pentyloxy}-(11aS)-2,3,5,11^a-tetrahydro-5H-pyrrolo[2,1-c][1,4]benzo-diazepine-5-one] | 1.5 °C | 2.5 °C |
| COc1cc(/C=C/C(=O)N2CCOCC2)ccc1OCCCOc1cc2c(cc1OC)C(=O)N1CCC[C@H]1C=N2 [14b, 7-methoxy-8-(3-2-methoxy-4-[(E)-3-morpholino-3-oxo-1-propenylphenoxy]propoxy)-(11aS)-2,3,5,11^a-tetrahydro-5H-pyrrolo[2,1-c][1,4]benzodiazepine-5-one] | 3.0 °C | 4.2 °C |
| COc1cc(/C=C/C(=O)N2CCOCC2)ccc1OCCCCCOc1cc2c(cc1OC)C(=O)N1CCC[C@H]1C=N2 [14d, 7-methoxy-8-(5-2-methoxy-4-[(E)-3-morpholino-3-oxo-1-propenylphenoxy]pentyloxy)-(11aS)-2,3,5,11^a-tetrahydro-5H-pyrrolo[2,1-c][1,4]benzodiazepine-5-one] | 7.1 °C | 8.2 °C |
| COc1cc2c(cc1O)N=CC1CCCN1C2=O (stereo not shown) [DC-81, reference compound] | 0.3 °C | 0.7 °C |
| 1,1′-{[(E-3-bis pentyloxy-3-methoxy phenyl)-1-4-piperzino]-2-propene-1-one]dioxy}bis(11aS)-7-methoxy-1,2,3,11a-tetrahydro-5H-pyrrolo[2,1-c][1,4]benzo diazepine-5-one [17d] | 8.1 °C | 9.2 °C |
| COc1cc(/C=C/C(=O)N2CCN(C)CC2)ccc1OCCCCCOc1cc2c(cc1OC)C(=O)N1CCC[C@H]1C=N2 [11d, 7-methoxy-8-(5-2-methoxy-4-[(E)-3-(4-methylpiperazino)-3-oxo-1-propenyl-phenoxy]pentyloxy)-(11aS)-2,3,5,11^a-tetrahydro-5H-pyrrolo[2,1-c][1,4]benzodiazepine-5-one] | 7.9 °C | 8.8 °C |
